row,SMILES,melting point [°C]
1,CC(=O)SCC(C)C(=O)N1C(C(=O)O)CC2CCCCC21 (stereo not given),152 to 154
2,Fc1cccc2[nH]cc(C3CCC4(CC3)OCCO4)c12,161 to 162
3,CC(C)(C)c1ccc(-c2cccc(-c3ccccc3)c2CC(=O)NC(=N)N)cc1,171 to 174
4,N#Cc1ccc(OCc2ccc3c(c2)OCO3)cc1OC(C(=O)O)c1ccccc1 (racemic),68 to 70
5,CC(CCCS(C)(=O)=O)C(c1cc(F)ccc1F)S(=O)(=O)c1ccc(Cl)cc1 (stereo not given),115 to 117
6,CCn1ncc(C(=O)c2ccc(S(C)(=O)=O)cc2Cl)c1O,172 to 175
7,O=c1[nH]c2cc(Cl)ccc2c(O)c1-c1ccc(Br)cc1,> 350
8,O=C(NCc1ccc(Oc2ccccc2)cc1)C1CCC1,69 to 71
9,O=C(NCc1ccc(Cl)cc1)c1cn2c3c(cc(CN4CCOCC4)cc3c1=O)OC(c1ccco1)C2 (stereo not given),220 to 222
10,CCOc1nn(C(=O)NS(=O)(=O)c2c(Cl)cccc2SC)c(=O)n1C,144
11,O=C1C2C=CC(O2)C(=O)N1c1ccccc1,150 to 152
12,COc1ccc(CN(CCN(C)CCCCCCNC(=S)NCCSCc2csc(NC(=N)N)n2)c2ccccn2)cc1,78
13,CCOC(=O)c1nccn1C1Cc2ccccc2C1=O (stereo not given),116
14,CCOC(=O)c1nnc(-c2ccc(OCC)cc2)o1,93
15,CCCc1nc2c(N)nc3ccccc3c2n1CCc1cc(-c2ccc(F)cc2)no1,208 to 209
16,CC(C)(C)NC(=O)Oc1ccc(-c2nn(C3CCCC3)c3c(F)cccc23)cc1,157
17,COc1ccc(C(=O)Nc2ccc3ccc(Oc4cccc(F)c4)nc3n2)cc1,151
18,Cc1ccccc1NS(=O)(=O)c1ccc(NC2=C(Cl)C(=O)c3ccccc3C2=O)cc1,265 to 266
19,Cc1nc(=O)c(C)c(NCCc2cccn2C)[nH]1,246 to 247
20,COC(=O)N1CC(=O)N(C)c2ccc(F)cc21,206 to 208
21,COc1ccc(Br)c2c1CN(Nc1ccncc1)CC2,172 to 173
22,NC(=O)c1cc2c(cc1OCC1CCCCC1)CCCCC2N (stereo not given),170 to 172
23,c1ccc2c(N3CCNCC3)nccc2c1,54 to 56
24,OCC1C(O)C(O)C(O)CN1C=CCc1cccc(OCCOc2cccc(CC=CN3CC(O)C(O)C(O)C3CO)c2)c1 (stereo not given),210 to 213

row,SMILES,melting point [°C]
1,CCOc1nc(C(=O)O)ccc1CN,226 to 228
2,O=C1c2nccnc2C(Cl)N1c1ccc2ccc(Cl)nc2n1 (stereo not given),264
3,C/C(=N\O)c1cccc(Nc2c3ccccc3nc3occc23)c1,248 to 249
4,C=C(OCC)c1cc(C(=O)OC)c(NC(C)=O)cc1C(F)(F)F,65 to 73
5,COc1cc2c(cc1OC)-c1c(C(N)=O)c(-c3cc(C)c(O)c(C)c3)c(C)n1CC2,229 to 231
6,CSc1ccc(CSc2nnc(-c3ccc4[nH]ncc4c3)o2)cc1C(F)(F)F,184 to 185
7,NCCCCn1ccnc1-c1ccccc1,82 to 84
8,COc1ccc2c(ccn2S(=O)(=O)c2ccccc2)c1,73 to 75
9,COc1ccc(Br)cc1-c1cc(-c2ccc(Br)cc2)on1,127 to 159
10,CC1(N)CN(c2cc3c(cc2F)c(=O)c(C(=O)O)cn3-c2ccc(F)cc2)C1,270 to 276
11,COC(=O)c1cccc(COc2cc(Cl)cnc2N)c1,148 to 150
12,COC(=O)[C@H](Cc1c[nH]c2ccccc12)NC(=O)CCC(=O)[C@H](Cc1ccccc1)NC(=O)c1ccccc1,88 to 90
13,O=C1c2ccccc2C(=O)N1CCCCc1nccc(NC(=S)NCC(F)(F)F)n1,204 to 205
14,O=C1NC=NC2CN=C(c3ccccc3)c3cc(Cl)ccc3C12 (stereo not given),150 to 155
15,N#CCOc1c(-c2ccccc2)c(=O)[nH]c2cc(Cl)ccc12,209 to 211
16,COC(=O)c1ccc(OCC(O)c2ccc3c(c2)C(C)(C)CCS3)cc1O (stereo not given),113 to 115
17,C=C1c2cc(F)ccc2OC12CCN(C(C)=O)CC2,114 to 116
18,O=C(NCCCCOc1ccc(-n2ccnc2)cc1)c1ccc(Cl)cc1,138 to 139
19,COc1cc(C(C)=O)ccc1OCCCN1CCC(C(O)(c2ccccc2)c2ccc(F)cc2)CC1 (stereo not given),147 to 148
20,COc1cc(Br)c(S(C)(=O)=O)cc1C(=O)O,225 to 258
21,CSc1ccc2cc(Cc3ccccc3)cc(CCNC(C)=O)c2c1,126 to 128
22,Cc1c(C)c2c(c(C)c1N)CC(C)(CN1CCN(C(=O)c3ccc(Cl)cc3)CC1)O2 (stereo not given),136 to 138
23,O=C(O)c1c(-c2cc(Cl)cc(Cl)c2)c2ccccc2n1Cc1cc2c(cc1Cl)OCO2,221 to 222
24,COC(=O)c1c(NC(C)=O)sc2c1CCC(C(C)(C)C)C2 (stereo not given),117 to 118

row,SMILES,melting point [°C]
1,CSc1nc(=O)n(CC(=O)O)cc1F,244 to 245
2,CCN(CC)CCNC(=O)c1cccc2c(=O)c3c(I)cccc3[nH]c12,144 to 146
3,CC(=NNC(=N)N)c1sc(-c2ccccc2)nc1C,195 to 196
4,COc1cc(C(C)C)c2c(c1)S(=O)(=O)N(COc1cc(Cl)nn1-c1ccccc1)C2=O,109 to 110
5,CCN(CC)CC1CCCCN1CC(=O)N1c2ccccc2NC(=O)c2csc(C)c21 (stereo not given),147 to 149
6,C=CCOCc1nc(C(C)(C)C)nn1-c1c(Cl)cc(Cl)cc1Cl,34 to 37
7,CCN(CC)C(=O)Cn1c(-c2ccc(C(F)(F)F)cc2)nc2cccnc21,140 to 142
8,COc1cccc(Oc2c(NS(=O)(=O)c3ccc(C(C)(C)C)cc3)nc(C(=O)Nc3ccccc3)nc2OCCO)c1,143
9,COc1ccc(S(=O)(=O)C(c2cnc(C(=O)NCCO)cc2C)c2cc(F)ccc2F)cc1F (stereo not given),137 to 138
10,CC(C)N1CCN(S(=O)(=O)c2ccc(NC(=O)Nc3ccc(C(F)(F)F)cc3)cc2)CC1,208 to 212
11,CN(Cc1ccco1)C(=O)C=C1OC(C)(C)OC1=O,83 to 86
12,COC(=O)c1cc(N)nc(-c2ccc(Cl)c(OC)c2F)n1,188 to 190
13,NCc1ccc(C(=O)Nc2ccc(-n3nc(C(F)(F)F)cc3C(F)(F)F)cc2)c(Cl)c1,90 to 93
14,CCC1(CC)OC(=O)Nc2ccccc21,159 to 160
15,C[C@@H](CNC(=O)COC(=O)c1cc(S(N)(=O)=O)c(Cl)cc1NCc1ccco1)O[N+](=O)[O-],125 to 138
16,CSc1ccccc1-c1ccc(C(=O)N2Cc3ccc(C(=O)NCc4cccnc4)n3Cc3ccccc32)cc1,172 to 175
17,COC(=O)C(C)(C)CC(=O)c1ccc(-n2ccnc2)cc1,89 to 93
18,NS(=O)(=O)c1cc(C(=O)O)cc(SCc2ccccc2)c1Sc1ccccc1,208 to 209
19,CC(=O)O[C@H]1C[C@@H]2CN(C(=O)c3ccc(NC(=O)c4ccccc4-c4ccccc4)cc3)c3ccccc3CN2C1,116 to 118
20,N#Cc1nn(-c2c(Cl)cc(C(F)(F)F)cc2Cl)c(N)c1-c1cc(Br)no1,227
21,Cn1cnc(COc2nn3c(-c4ccccc4)nnc3cc2-c2cccs2)n1,237 to 239
22,COc1cc(C(=O)Nc2cccc3c2CCN(C)C3)cc(OC)c1OC,143
